In patent US20260000672A1, “HISTONE DEACETYLASE INHIBITORS FOR USE IN IMMUNOTHERAPY” (Viracta Subsidiary, Inc., priority 2016, published 2026):

Legend:
[1] = tested on: BALB/c splenocytes; test: FACS analysis of BALB/c splenocytes after 24 hours with test agents; format: cell-based, mouse; conditions: for CD45+ CD3+ / CD45+ CD3+ CD4+ / CD45+ CD3+ CD4+ CD25+ / CD45+ CD3+ CD4+ FoxP3+ / CD45+ CD3+ CD4+ FoxP3+, CD25+ / CD45+ CD3+ CD4+ FoxP3+, CD25− / CD45+ CD3+ CD4+ FoxP3− CD25+ / CD45± / Live: 24 hours
From the text: FACS analysis consisted of the following markers: live/dead, CD45, CD3, CD4, CD25 and FOXP3.

[2] = tested on: mouse fibroblasts; conditions: cited from earlier work
[3] = tested on: breast cancer cell line MCF-7; conditions: cited from earlier work
[4] = 1 uM, n=5, mean (SD in the line below)

Q: What does the source list for `O=C(NO)c1cnc(N2CC3C(C2)C3NCc2ccc3cc(F)ccc3n2)nc1` (stereo not shown) [VRx-3996, 2-(6-{[(6-Fluoroquinolin-2-yl)methyl]amino}-3-azabicyclo[3.1.0]hex-3-yl)-N-hydroxypyrimidine-5-carboxamide]?
A: CD45+ CD3+ ([1]; 1 nM, n=5): 46.9%; CD45+ CD3+ CD4+ ([1]; 1 nM, n=5): 32.4%; CD45+ CD3+ CD4+ CD25+ ([1]; 1 nM, n=5): 7.93%; CD45+ CD3+ CD4+ FoxP3+ ([1]; 1 nM, n=5): 12%; CD45+ CD3+ CD4+ FoxP3+, CD25+ ([1]; 1 nM, n=5): 6.2%; CD45+ CD3+ CD4+ FoxP3+, CD25− ([1]; 1 nM, n=5): 4.47%; CD45+ CD3+ CD4+ FoxP3− CD25+ ([1]; 1 nM, n=5): 1.14%; CD45± ([1]; 1 nM, n=5): 98.6%; Live ([1]; 1 nM, n=5): 98.4%; CD45+ CD3+ ([1]; 100 nM, n=5): 94%; CD45+ CD3+ CD4+ ([1]; 100 nM, n=5): 75.3%; CD45+ CD3+ CD4+ CD25+ ([1]; 100 nM, n=5): 1.89%; CD45+ CD3+ CD4+ FoxP3+ ([1]; 100 nM, n=5): 1.62%; CD45+ CD3+ CD4+ FoxP3+, CD25+ ([1]; 100 nM, n=5): 0.064%; CD45+ CD3+ CD4+ FoxP3+, CD25− ([1]; 100 nM, n=5): 0.34%; CD45+ CD3+ CD4+ FoxP3− CD25+ ([1]; 100 nM, n=5): 1.22%; CD45± ([1]; 100 nM, n=5): 99.6%; Live ([1]; 100 nM, n=5): 91.4%; CD45+ CD3+ ([1]; 500 nM, n=5): 94%; CD45+ CD3+ CD4+ ([1]; 500 nM, n=5): 80.6%; CD45+ CD3+ CD4+ CD25+ ([1]; 500 nM, n=5): 3.03%; CD45+ CD3+ CD4+ FoxP3+ ([1]; 500 nM, n=5): 2.36%; CD45+ CD3+ CD4+ FoxP3+, CD25+ ([1]; 500 nM, n=5): 0.22%; CD45+ CD3+ CD4+ FoxP3+, CD25− ([1]; 500 nM, n=5): 0.47%; CD45+ CD3+ CD4+ FoxP3− CD25+ ([1]; 500 nM, n=5): 1.69%; CD45± ([1]; 500 nM, n=5): 99.5%; Live ([1]; 500 nM, n=5): 87.2%; CD45+ CD3+ ([1]; 1 uM, n=5): 94.7%; CD45+ CD3+ CD4+ ([1]; 1 uM, n=5): 82.2%; CD45+ CD3+ CD4+ CD25+ ([1]; 1 uM, n=5): 3.57%; CD45+ CD3+ CD4+ FoxP3+ ([1]; 1 uM, n=5): 3.85%; CD45+ CD3+ CD4+ FoxP3+, CD25+ ([1]; 1 uM, n=5): 0.14%; CD45+ CD3+ CD4+ FoxP3+, CD25− ([1]; 1 uM, n=5): 0.8%; CD45+ CD3+ CD4+ FoxP3− CD25+ ([1]; 1 uM, n=5): 1.96%; CD45± ([1]; 1 uM, n=5): 99.6%; Live [1, 4]: 84.7%; reduction in FoxP3, CD25+ T cells ([1]; compared to entinostat at 1 μM): ~47 fold; concentration at which the suppressive effect on FoxP3+, CD25+ T cells was seen ([1]; seen at least as low as): ≤ 100 nM; effect on CD4+, CD25+, and FoxP3+ regulatory cells ([1]; striking when compared to entinostat): specifically reduces

Q: What does the source list for `CCCC(=O)O` [butyrate]?
A: cell cycle [2]: block the cell cycle in the G1 phase; cellular proliferation [3]: induces a block in cellular proliferation

Q: Which “CD45+ CD3+ CD4+” value ([1]; 1 uM, n=5) does the source give for `Nc1ccccc1NC(=O)c1ccc(CNC(=O)OCc2cccnc2)cc1` [Entinostat, reference compound] here?
A: Its value is 38.5%.

Q: What about the “CD45+ CD3+ CD4+ CD25+” value ([1]; 1 uM, n=5) of the same molecule?
A: The value was 10.4%.

Q: And the “CD45+ CD3+ CD4+ FoxP3+” value ([1]; 1 uM, n=5)?
A: Its value is 10.1%.

Q: And the “CD45+ CD3+ CD4+ FoxP3+, CD25+” value ([1]; 1 uM, n=5)?
A: Its value is 5.12%.

Q: And the “CD45+ CD3+ CD4+ FoxP3+, CD25−” value ([1]; 1 uM, n=5)?
A: The value was 2.33%.

Q: And the “CD45+ CD3+ CD4+ FoxP3− CD25+” value ([1]; 1 uM, n=5)?
A: The value was 4.57%.

Q: What about the “CD45±” value ([1]; 1 uM, n=5) of the same molecule?
A: The value was 99.1%.

Q: And the Live [1, 4]?
A: Its Live is 97.6%.
